Data reported in patent US20230095021A1, “MODULATORS OF TDP-43” (Alteron Therapeutics, Inc., priority 2019, published 2023).

Assays:
His-Sumo-TDP43 = molecular target: T1, His-Sumo-TDP43 (Homo sapiens, UniProt Q13148); test: Binding of His-Sumo-TDP43 to TG12-biotin, streptavidin bead pull-down and Western blot
T1 construct: made in house; host or cells: E. coli Rosetta (DE3), vector pSumo/TDP43, Ni-NTA purified
Procedure: Additional experiments were performed to confirm the direct binding of ALT-59 to TDP-43. One microgram of purified His-Sumo-TDP43 was incubated with 1 μg TG12-biotin ([…]-biotin (SEQ ID NO: 1)) in binding buffer containing 20 mM HEPES, pH 7.5, 0.3% CHAPS, 150 mM NaCl, (Sigma-Aldrich), and protease inhibitor cocktail (Roche) for 4 hours on ice in the presence of carrier (50% Cremophor EL, 50% absolute ethanol) or 30 μM ALT-59 dissolved in carrier. Streptavidin magnetic beads (20 μl settled beads, GE Healthcare Life Sciences) were added to pull down the DNA-protein complex by rotating at 4° C. for 2 hours. After being washed 5 times with binding buffer, samples were boiled in protein sample buffer. In another experiment, DNA-protein complex bound to Streptavidin magnetic beads were washed and split into three parts, two of which were incubated with either carrier or ALT-59 for 4 hours with rotation at 4° C. to elute TDP-43 from TG12-biotin-streptavidin. The third part and elutes were mixed with protein sample buffer and boiled. Protein samples from the above experiments were loaded onto 4-20% Tris-glycine gel (Invitrogen) for fractionation. Western blotting was performed using anti-TDP-43 antibody (Proteintech Group).

LAMP2 pre-mRNA = LAMP2 pre-mRNA alternative splicing, RT-PCR; format: cell-based; conditions: MDA-MB-231 cells, 6 μM ALT-59
Procedure: (§1) Long stretches of TG repeats are found in exon 9 and intron 9 of Lamp2 gene. A shorter stretch is located in intron 10. […] RT-PCR analysis was performed to test if ALT-59 treatment affects LAMP2 alternative splicing. MDA-MB-231 cells were cultured as described above and treated with DMSO or 6 μM ALT-59. Total RNA was extracted using the RNeasy Mini Kit (Qiagen) and equal amount of RNA was reverse transcribed using the SuperScript III First-Strand Synthesis System (Invitrogen). PCR reactions were performed using forward primer located on exon 1 and a reverse primer located on exon 11. PCR samples were resolved in a 1.2% agarose gel and stained with ethidium bromide.

CFTR exon 9 = CFTR exon 9 splicing, RT-PCR; format: cell-based; conditions: MDA-MB-231 cells
Procedure: as §1
(§2) It has been reported that TDP-43 causes CFTR exon 9 skipping, ApoA2 exon 3 skipping, and POLDIP3 exon 3 inclusion. Additional experiments were performed to further confirm that TDP-43 is the target of ALT-59. RT-PCR analysis was performed as described above using the following primers for the three genes. PCR samples were analyzed by polyacrylamide gel electrophoresis and stained with ethidium bromide.

ApoA2 pre-mRNA = ApoA2 pre-mRNA splicing, RT-PCR; format: cell-based; conditions: MDA-MB-231 cells, endogenous gene
Procedure: as §1, §2

POLDIP3 exon 3 = POLDIP3 exon 3 splicing, RT-PCR; format: cell-based; conditions: MDA-MB-231 cells
Procedure: as §1, §2

CFTR [1] = test: CFTR protein levels, Western blot in U-87 MG cells; format: cell-based
Procedure: Additional experiments were performed to determine how ALT-59 treatment affects CFTR protein levels. U-87 MG cells were maintained at 37° C. in a CO2 incubator in Dulbecco's Modified Eagle's Medium (DMEM) supplemented with 10% fetal bovine serum (FBS) and 1% of penicillin/streptomycin (Invitrogen), and were treated with DMSO, 3 μM, or 6 μM ALT-59. Cells were lysed using RIPA buffer (25 mM Tris, pH 7.4, 150 mM NaCl, 0.1% SDS, 0.5% sodium deoxycholate, 1% Triton X-100, Complete protease inhibitor cocktail). Western blotting was performed using anti-CFTR (Novus Biologicals) and anti-beta-actin (Sigma-Aldrich) antibodies. Images were obtained using Odyssey imager and quantified using the Odyssey software (LI-COR).

CFTR [2] = test: CFTR localization, immunofluorescence microscopy, MDA-MB-231 cells; format: cell-based; conditions: 4 μM, 3 days
Procedure: (§3) MDA-MB-231 and U-87 MG cells were cultured on cover slips under the conditions as described above. Cells were treated with DMSO or 4 μM ALT-59 for 3 days. Primary human bronchial epithelial cells isolated from cystic fibrosis patient homozygous for Phe508del-CFTR (Lifeline Cell Technology) were cultured on cover slips in BronchiaLife Cell Culture Medium supplemented with BrochiaLife LifeFactors Kit (Lifeline Cell Technology) and maintained at 37° C. in a CO2 incubator. Cells were treated with DMSO, 4 μM ALT-59, 2 μM ALT-308, or 4 μM ALT-410 for 3 days.
(§4) Cells were fixed in 4% paraformaldehyde for 15 minutes and permeabilized in 0.1% Triton X-100 for 2 minutes. After being blocked in 5% BSA (Sigma-Aldrich), cells were incubated with anti-CFTR antibody (Alomone Labs) followed by Alexa Fluor 488 anti-rabbit secondary antibody. Reagents were buffered in GIBCO PBS (Phosphate-Buffered Saline). Images were taken using Carl Zeiss LSM 510 Laser Scanning Microscope. Parameters were set identical for all images.

CFTR [3] = test: CFTR localization, immunofluorescence microscopy, U-87 MG cells; format: cell-based; conditions: 4 μM, 3 days
Procedure: as §3, §4

Beta-secretase 1 (BACE1) = test: BACE1 protein level, Western blot in U-87 MG cells; format: cell-based; conditions: 2 days
Procedure: (§5) U-87 MG and T98G cells were maintained at 37° C. in a CO2 incubator in Dulbecco's Modified Eagle's Medium (DMEM) supplemented with 10% fetal bovine serum (FBS) and 1% of penicillin/streptomycin (Invitrogen). Cells were treated with DMSO, 3 μM, or 6 μM ALT-59 for 2 days and subjected to Western blotting analysis using the indicated antibodies. Protein bands were quantified using the ImageJ software.

Tau = Tau expression, Western blot in U-87 MG cells; format: cell-based; conditions: 2 days
Procedure: as §5

MAP2 = MAP2 expression, Western blot in U-87 MG cells; format: cell-based; conditions: 2 days
Procedure: as §5

BACE1 = BACE1 expression, Western blot in T98G cells; format: cell-based; conditions: 2 days
Procedure: as §5

[4] = system: transgenic C. elegans expressing full-length (wild-type) human TDP-43; test: Paralysis caused by hTDP-43 expression in C. elegans; format: in vivo; conditions: 10 μM ALT-59 in NGM plates
Procedure: Wild-type N2 strain or transgenic C. elegans expressing full-length (wild-type) human TDP-43 (strain number, CL6049, Caenorhabditis Genetics Center, Minneapolis, Minn.) were placed on freshly prepared Nematode Growth Medium (NGM) petri plates with or without 10 μM ALT-59.
Uncoordinated phenotypes were imaged, and movement deficits were quantified by counting body thrashes in liquid after recording under an inverted microscope.

T1 sequence (Q13148 whole entry): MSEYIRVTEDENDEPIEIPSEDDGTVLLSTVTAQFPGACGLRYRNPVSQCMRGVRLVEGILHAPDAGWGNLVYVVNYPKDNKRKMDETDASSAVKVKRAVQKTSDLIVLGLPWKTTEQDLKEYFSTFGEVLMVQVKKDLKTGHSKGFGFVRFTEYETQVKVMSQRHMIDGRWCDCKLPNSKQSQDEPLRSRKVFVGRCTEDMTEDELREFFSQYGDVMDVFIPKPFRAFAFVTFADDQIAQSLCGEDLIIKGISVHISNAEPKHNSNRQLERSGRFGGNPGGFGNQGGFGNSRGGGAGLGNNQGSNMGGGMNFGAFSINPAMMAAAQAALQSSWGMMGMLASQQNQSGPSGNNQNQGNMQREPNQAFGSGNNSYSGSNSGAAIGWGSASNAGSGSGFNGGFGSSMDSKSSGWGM

## CN(C)c1ccc(C2Nc3ccc4ccccc4c3C3=C2C(=O)CC(C)(C)C3)cc1Br (stereo not drawn) [ALT-59, 5-(3-bromo-4-(dimethylamino)phenyl)-2,2-dimethyl-2,3,5,6-tetrahydrobenzo[a]phenanthridin-4(1H)-one]
His-Sumo-TDP43; 30 μM ALT-59 in carrier, 4 hours on ice
  binding of TDP-43 to TG12: can block the binding of TDP-43 to TG12
His-Sumo-TDP43; preformed DNA-protein complex on streptavidin beads, 4 hours at 4° C.
  elution of TDP-43 from the TDP43-TG12 complex: capable of displacing TG12 from the TDP43-TG12 complex
LAMP2 pre-mRNA
  level of LAMP2a mRNA: reduces the level of LAMP2a mRNA
  level of LAMP2c mRNA: increases the level of LAMP2c mRNA
CFTR exon 9
  CFTR exon 9 inclusion: capable of promoting CFTR exon 9 inclusion
ApoA2 pre-mRNA
  ApoA2 splicing: blocking ApoA2 splicing
POLDIP3 exon 3
  splicing of POLDIP3 exon 3: remain unchanged
CFTR [1]; 3 μM
  increase of CFTR300 level: 10 fold
  level of CFTR160: did not affect
CFTR [1]; 6 μM
  increase of CFTR160 level: 30%
  increase of CFTR240 level: 3 fold
  increase of CFTR300 level: 18 fold
CFTR [2]
  CFTR localization: redistribution of CFTR from the perinuclear region to the plasma membrane
CFTR [3]
  CFTR localization: redistribution of CFTR from the perinuclear region to the plasma membrane
Beta-secretase 1 (BACE1); 3 μM
  reduction of BACE1 protein level: 20%
Beta-secretase 1 (BACE1); 6 μM
  reduction of BACE1 protein level: 50%
Tau; 3 μM
  reduction of Tau expression: 52%
Tau; 6 μM
  reduction of Tau expression: 38%
MAP2; 3 μM
  increase of MAP2 expression: 1.42 folds
MAP2; 6 μM
  increase of MAP2 expression: 2.51 folds
BACE1; 3 μM
  reduction of BACE1 expression: 31%
BACE1; 6 μM
  reduction of BACE1 expression: 53%
[4]
  coiled body posture and uncoordinated phenotype: rescued the coiled body posture and uncoordinated phenotype
[4]; without treatment 93%
  percentage of paralysis: 29.5%
